{
  "source": "patent US6344211B1",
  "about": "“Transdermal absorption of active substances from subcooled melts” (LTS Lohmann Therapie-Systeme GmbH, priority 1994, dated 2002)",
  "key": {"[1]": {"settings": "cited from earlier work"}, "[2]": {"test": "dissociation constant (pKa) of the acids used", "format": "physicochemical", "settings": "determined by experiment", "description": "Column 1 indicates the number of the experiment, column 2 the concentration of buprenorphine base, column 3 the quality and quantity of the acid used, column 4 the dissociation constant of the acids used, column 5 the plasticizer, column 6 the polymers used, and column 7 the absorption rate under in-vitro-conditions. The relative amount of buprenorphine base diffusing through mice skin within 24 h, relative to the amount per TTS, is given. The penetration results were obtained using mice skin clamped in a Franz-Cell.\nIt is seen from column 4 that the dissociation constants of the carboxylic acids used are quite similar. However, if the plasticizer, oleyl oleate, is used in a 10%-concentration each time, it can be seen from Examples 1 and 3 or 2 and 4 that only the carboxylic acids having a tendency to form subcooled melts cause a marked penetration increase under in-vitro conditions. […] This was compensated by a higher concentration of the two weaker acids, amounting to 15%, as compared to the concentration of the two stronger acids. However, it can also be seen that the dissociation constants are so similar that the absorption-promoting effect cannot be explained by the dissociation constants."}},
  "note": "Read-outs that look alike come from different tables or passages of the source. Marks after values point to notes of the source that are not given here.",
  "data": [
    {"smiles": "O=C(O)CCCC(=O)O", "note": "[glutaric acid]", "values": [
      {"measurement": "pKa value", "setting": "[1]; pKa I of glutaric acid, given for the glutaric acid monomethyl ester line", "value": "4.33*"}
    ]},
    {"smiles": "CC(=O)CCC(=O)O", "note": "[levulic acid]", "values": [
      {"measurement": "pKa value", "setting": "[2]", "value": "4.4**"}
    ]},
    {"smiles": "C=CCCCCCCCCC(=O)O", "note": "[undecenoic acid]", "values": [
      {"measurement": "pKa value", "setting": "[1]; dissociation constant of the acid used in the TTS", "value": 4.5}
    ]}
  ]
}
